Source: US11957687B2 (REGENERON PHARMACEUTICALS, INC., priority 2019, dated 2024)

Legend:
HSD17B13 = HSD17B13 (Homo sapiens (Human), UniProt Q7Z5P4); experiment: HSD17B13 enzymatic inhibition assay (150 nM or 50 nM HSD17B13); assay type: biochemical; details: 50 nM HSD17B13; read-out: Inhibition of 50 nM of HSD17B13 IC50
[1] = Microsome stability assay, mouse liver microsomes; assay type: in vitro ADME; details: 1 μM compound, 0.5 mg/mL microsomal protein; for microsomal CLint at 1 h, 1 µM / half-life at 1 h, 1 µM / microsomal CLint at 1 μM / half-life at 1 μM: mouse, mouse liver microsomes, pooled, NADPH, 37° C.; for microsomal CLint at 1 h, 1 µM / microsomal CLint at 1 μM: read-out: Microsome Stability Mouse liver microsomes Cl; for half-life at 1 h, 1 µM / half-life at 1 μM: read-out: Microsome Stability Mouse liver microsomes T½
Experimental: (§1) Compounds of the disclosure were screened in microsome stability assays. For the screen, test compounds were incubated at 37° C. with either human liver microsomes (Corning; #452117) or mouse liver microsomes (XenoTech; #M1000), pooled from multiple donors, at 1 μM in the presence of a NADPH regenerating system at 0.5 mg/mL microsomal protein. Positive controls included in the assay were testosterone (3A4 substrate), propafenone (2D6) and diclofenac (2C9). Samples were removed at different time points (0, 5, 10, 20, 30 and 60 minutes) and immediately mixed with cold acetonitrile containing internal standard (IS, 200 ng/mL tolbutamide and 200 ng/mL labetalol). Test compounds incubated with microsomes for 60 minutes without the NADPH regenerating system was also included. A single point for each test condition (n=1) was obtained, and samples were analyzed by LC/MS/MS. Disappearance of the test compound was assessed based on peak area ratios of analyte/IS (no standard curve).

[2] = Microsome stability assay, human liver microsomes; assay type: in vitro ADME; details: 1 μM compound, 0.5 mg/mL microsomal protein
Experimental: as §1

[3] = human, human liver microsomes, pooled, NADPH, 37° C., read-out: Microsome Stability Human liver microsomes Cl
[4] = human, human liver microsomes, pooled, NADPH, 37° C., read-out: Microsome Stability Human liver microsomes T½

Sequence of HSD17B13 (Q7Z5P4 other isoform, or with tags, fused parts or gaps): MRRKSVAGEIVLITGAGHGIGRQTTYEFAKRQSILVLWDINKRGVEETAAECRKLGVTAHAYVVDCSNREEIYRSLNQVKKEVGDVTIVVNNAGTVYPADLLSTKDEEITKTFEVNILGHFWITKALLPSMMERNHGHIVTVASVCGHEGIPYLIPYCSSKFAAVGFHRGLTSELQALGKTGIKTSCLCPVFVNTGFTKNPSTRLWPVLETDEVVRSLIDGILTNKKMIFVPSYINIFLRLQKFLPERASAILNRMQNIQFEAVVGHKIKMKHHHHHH

IC50 (HSD17B13) [nM] | Microsome Stability Mouse liver microsomes % Remaining @60 min [1] [%] | microsomal CLint at 1 h, 1 µM [1] [µL/min/mg] | half-life at 1 h, 1 µM [1] [min] | Microsome Stability Human liver microsomes % Remaining @60 min [2] [%] | microsomal CLint at 1 h, 1 µM [2, 3] [µL/min/mg] | half-life at 1 h, 1 µM [2, 4] [min] | microsomal CLint at 1 μM [1] [µL/min/mg] | half-life at 1 μM [1] [min] | microsomal CLint at 1 μM [2, 3] [µL/min/mg] | half-life at 1 μM [2, 4] [min] | SMILES
1750 | 29.00 | 42.4 | 32.7 | 66.90 | 13.4 | 103 |  |  |  |  | O=C(NC(c1ccccc1)c1ccccc1)c1ccc(C(F)(F)F)[nH]c1=O [Compound 1, N-benzhydryl-2-oxo-6-(trifluoromethyl)-1,2-dihydropyridine-3-carboxamide]
410 | 1 | 303 | 4.56 | 1 | 369 | 3.76 |  |  |  |  | COc1ccc2c(c1)CCCC2NC(=O)c1ccc(C(F)(F)F)[nH]c1=O (stereo not shown) [Compound 234, N-(6-methoxy-1,2,3,4-tetrahydronaphthalen-1-yl)-2-oxo-6-(trifluoromethyl)-1,2-dihydropyridine-3-carboxamide]
200 | 50 | 23.6 | 58.7 | 1 | 547 | 2.53 |  |  |  |  | Cc1ccc2c(c1)CCCC2NC(=O)c1ccc(C(F)(F)F)[nH]c1=O (stereo not shown) [Compound 235, N-(6-methyl-1,2,3,4-tetrahydronaphthalen-1-yl)-2-oxo-6-(trifluoromethyl)-1,2-dihydropyridine-3-carboxamide]
340 | 39 | 31 | 44.7 | 66.40 | 13.2 | 105 |  |  |  |  | COc1ccc2c(c1)Oc1cc(OC)ccc1C2NC(=O)c1ccc(C(F)F)[nH]c1=O [Compound 273, 6-(difluoromethyl)-N-(3,6-dimethoxy-9H-xanthen-9-yl)-2-oxo-1,2-dihydropyridine-3-carboxamide]
340 | 76.40 |  |  | 70.70 | 9.82 | 141 | < 9.6 | > 145 |  |  | CCC1CCc2cc(O)ccc2C1NC(=O)c1ccc(C(F)(F)F)[nH]c1=O (stereo not shown) [Compound 284, N-(2-ethyl-6-hydroxy-1,2,3,4-tetrahydronaphthalen-1-yl)-2-oxo-6-(trifluoromethyl)-1,2-dihydropyridine-3-carboxamide]
30 | 11.20 | 70.7 | 19.6 | 1.49 | 137 | 10.1 |  |  |  |  | CCCC1CCc2cc(C)ccc2C1NC(=O)c1ccc(C(F)(F)F)[nH]c1=O (stereo not shown) [Compound 285, N-(6-methyl-2-propyl-1,2,3,4-tetrahydronaphthalen-1-yl)-2-oxo-6-(trifluoromethyl)-1,2-dihydropyridine-3-carboxamide]
190 | 38.20 | 29.6 | 46.9 | 27.10 | 42.9 | 32.3 |  |  |  |  | CCCC1CCc2cc(Cl)ccc2C1NC(=O)c1ccc(C(F)(F)F)[nH]c1=O (stereo not drawn) [Compound 286, N-(6-chloro-2-propyl-1,2,3,4-tetrahydronaphthalen-l-yl)-2-oxo-6-(trifluoromethyl)-1,2-dihydropyridine-3-carboxamide]
 | 52.20 | 21.3 | 65 | 17.90 | 54.5 | 25.5 |  |  |  |  | CCCC1Cc2ccc(C)cc2C1NC(=O)c1ccc(C(F)(F)F)[nH]c1=O (stereo not shown) [Compound 291, N-(6-methyl-2-propyl-2,3-dihydro-1H-inden-1-yl)-2-oxo-6-(trifluoromethyl)-1,2-dihydropyridine-3-carboxamide]
130 | 33.80 | 37.9 | 36.5 | 0.14 | 231 | 6 |  |  |  |  | CC1CCc2cc(Cl)ccc2C1NC(=O)c1ccc(C(F)(F)F)[nH]c1=O (stereo not shown) [Compound 293, N-(6-chloro-2-methyl-1,2,3,4-tetrahydronaphthalen-1-yl)-2-oxo-6-(trifluoromethyl)-1,2-dihydropyridine-3-carboxamide]
90 | 33.80 | 33.4 | 41.5 | 0.10 | 643 | 2.15 |  |  |  |  | Cc1ccc2c(c1)CCC(C)C2NC(=O)c1ccc(C(F)(F)F)[nH]c1=O (stereo not shown) [Compound 294, N-(2,6-dimethyl-1,2,3,4-tetrahydronaphthalen-1-yl)-2-oxo-6-(trifluoromethyl)-1,2-dihydropyridine-3-carboxamide]
100 | 69 | 12.7 | 110 | 1 | 221 | 6.26 |  |  |  |  | CCC1Cc2cc(OC)ccc2C1NC(=O)c1ccc(C(F)(F)F)[nH]c1=O (stereo not shown) [Compound 295, N-(2-ethyl-5-methoxy-2,3-dihydro-1H-inden-1-yl)-2-oxo-6-(trifluoromethyl)-1,2-dihydropyridine-3-carboxamide]
110 | 36.10 | 35.4 | 39.1 | 1.24 | 149 | 9.3 |  |  |  |  | CCC1CCc2cc(Cl)ccc2C1NC(=O)c1ccc(C(F)(F)F)[nH]c1=O (stereo not shown) [Compound 297, N-(6-chloro-2-ethyl-1,2,3,4-tetrahydronaphthalen-1-yl)-2-oxo-6-(trifluoromethyl)-1,2-dihydropyridine-3-carboxamide]
450 | 96.90 |  |  | 78.40 |  |  | < 9.6 | > 145 | < 9.6 | > 145 | Cc1ccc2c(c1)[C@@H](O)CC[C@H]2NC(=O)c1ccc(C(F)(F)F)[nH]c1=O [Compound 312, N-((1R,4S)-4-hydroxy-6-methyl-1,2,3,4-tetrahydronaphthalen-1-yl)-2-oxo-6-(trifluoromethyl)-1,2-dihydropyridine-3-carboxamide]
70 | 54.30 | 19.4 | 71.3 | 1.70 | 132 | 10.5 |  |  |  |  | CCCC1=Cc2cc(C)ccc2C1NC(=O)c1ccc(C(F)(F)F)[nH]c1=O (stereo not shown) [Compound 341, N-(5-methyl-2-propyl-1H-inden-1-yl)-2-oxo-6-(trifluoromethyl)-1,2-dihydropyridine-3-carboxamide]
